According to patent publication US4016287A, “Dermatological compositions containing an acylamino-carboxylic acid or an alkyl ester thereof” (Boehringer Ingelheim GmbH, priority 1975, dated 1977):

Experiments:
[1] = tested on: dinitrochlorobenzene-eczema; assay: antiphlogistic activity, dinitrochlorobenzene-eczema method; assay type: in vivo, guinea pigs; conditions: Cavia porcellus, topical; ethanolic 5% solution on shaved flanks, 30 minutes before 1% dinitrochlorobenzene; visual evaluation after 22 hours; read-out: Inhibition of dinitrochlorobenzene-eczema over control
Method: The antiphlogistic activity was ascertained by the dinitrochlorobenzene-eczema method [see A. I. Scott, Brit. J. Dermatol. 77, 586 (1965)].
The compound to be tested was applied in the form of an ethanolic 5% solution to the shaved flanks of a group of 10 guinea pigs which has been sensitized with dinitrochlorobenzene. An analogous control group was treated with only ethanol. The treatment was effected 30 minutes prior to release of the allergic reaction with a 1% solution of dinitrochlorobenzene in acetone. The results were visually evaluated 22 hours thereafter.

[2] = tested on: sebaceous gland excretion; assay: sebaceous gland excretion-inhibiting activity, glass block method (refatting of forehead skin); assay type: in vivo, human; conditions: ethanolic 5% solution, 0.25 ml on half of forehead; for Average extinction values, Difference: difference between treated and controls (ethanol); for Average extinction values, Treated: skin fat removed after 90 minutes, refatting measured after three additional hours, treated group
Method: The sebaceous gland excretion-inhibiting activity was ascertained by the glass block method described by Schaefer and Kuhn-Bussius in Arch. Klin. exper. Derm. 238, 429-435 (1970). Small glass blocks, the facets of which have been roughened or frosted, are pressed against the skin surface where the amount of skin fat is measured. The skin fat or sebum transferred from the skin to the glass facet makes the blocks more translucent, and the increase in translucence is directly proportional to the amount of sebum present in the skin area. The translucence is measured in a photometer. Prior to measurement of the degree of refating of the skin, the skin fat was removed with a plastic foil.
0.25 ml of an ethanolic 5% solution of the compound to be tested was applied to half of the forehead of 5 to 10 human test subjects, while 0.25 ml of ethanol was applied to half of the forehead of a group of 5 to 10 control subjects. After 90 minutes the skin fat was removed with the plastic foil, and after three additional hours the degree of refatting was determining with the aid of the small glass blocks referred to above.

[3] = acute toxicity, LD50 mouse i.p.; conditions: in vivo, ip

| SMILES | inhibition in vivo at 5 % [1] [%] | Average extinction values, Difference [2] | Average extinction values, Treated [2] | LD50 [3] [mg/kg] |
| --- | --- | --- | --- | --- |
| CCCCCCCCCCCCCCCCOC(=O)CNC(C)=O [A, n-acetyl-glycine hexadecyl ester] | 46 | 9.5 | 75.5 |  |
| CCCCCCCCCCCCCCCCOC(=O)C(C)NC(C)=O (stereo not drawn) [B, n-acetyl-alanine hexadecyl ester] | 19 | 7.5 | 74.0 |  |
| CCCCCCCCCCCCCCCCOC(=O)CNC(=O)c1ccccc1 [Compound C, n-benzoyl-glycine hexadecyl ester] | 28 | 16.5 | 78.5 | > 4000 |
| CCCCCCCCCCCCCCCCOC(=O)CN(C)C(C)=O [D, n-acetyl-sarcosine hexadecyl ester] | 20 | 9.0 | 86.5 |  |
| CCCCCCCCCCCCCCCCOC(=O)CNC=O [F, n-formyl-glycine hexadecyl ester] | 50 |  |  |  |
| CCCCCCCCCCCCCCCCOC(=O)CNC(=O)CC [G, n-propionyl-glycine hexadecyl ester] | 34 |  |  |  |
| CCCCCCCCCCCCCC(=O)NCC(=O)O [H, n-tetradecanoyl-glycine] | 38 |  |  |  |
| O=C(O)CCCNC(=O)c1ccc(-c2ccccc2)cc1 [I, n-(4'-phenyl-benzoyl)-4-amino-butyric acid] | 36 |  |  |  |
| CCCCCCCCCCCCCCCCOC(=O)CCNC(C)=O [J, n-acetyl-β-alanine hexadecyl ester] | 35 |  |  |  |
